Measured values from paper PMC2814954 (Biochemical pharmacology, 2009).

Experiments:
HepG2 cells = assay: C1-BODIPY-C12 fatty acid uptake inhibition in HepG2 cells; format: cell-based; settings: Homo sapiens, HepG2, read-out: HepG2 IC50
Caco-2 cells [1] = assay: Glucose; format: cell-based, human; settings: 1 h preincubation
Caco-2 cells [2] = assay: MTT cytotoxicity assay in Caco-2 cells; settings: 24 h
[3] = test system: long chain acyl-CoA synthetase (Acsl); assay: Oleoyl-CoA synthetase; format: biochemical, human; settings: Caco-2 cells pretreated 1 h; for Oleoyl CoA synthetase activity after compound treatment: rinsed, total cell extracts
Caco-2 cells [4] = assay: C1-BODIPY-C12 fatty acid uptake inhibition in Caco-2 cells; format: cell-based, human; settings: for IC50: Homo sapiens, Caco-2, read-out: Caco-2 IC50; for % Transport Standard Assay: compound 40 μM, Caco-2 cells, % of no-compound control, mean ± SD
Caco-2 cells [5] = assay: Reversibility of fatty acid uptake inhibition after 24 h recovery; format: cell-based, human; settings: compound 40 μM for 1 h, washed, mean ± SD
3T3-L1 adipocytes = assay: C1-BODIPY-C12 fatty acid uptake inhibition in 3T3-L1 adipocytes; format: cell-based; settings: Mus musculus, 3T3-L1, read-out: 3T3-L1 Adipocytes IC50
[6] = 50 μM, Caco-2 cells (10 times the IC50 dosage)

Row | SMILES | IC50 (HepG2 cells) | IC50 (Caco-2 cells [4]) | 2-NBDG glucose transport (Caco-2 cells [1]; 20 μM) | Cellular toxicity (MTT assay) (Caco-2 cells [2]; [6]) | Inhibition of oleoyl CoA synthetase activity ([3]; 50 μM (10 times the IC50), cell extracts) | % Transport Standard Assay (Caco-2 cells [4]) | % Transport after 24 Hour Recovery (Caco-2 cells [5]) | IC50 (3T3-L1 adipocytes) | Oleoyl CoA synthetase activity after compound treatment [3] | 2-NBDG glucose transport (Caco-2 cells [1]; 50 μM) | Cellular toxicity (MTT assay) (Caco-2 cells [2]; 100 μM, Caco-2 cells)
1 | Oc1c(C2=NCCNC(C(F)(F)F)=C2)ccc2ccccc12 [CB-6, 2-[7-(trifluoromethyl)-2,3-dihydro-1H-1,4-diazepin-5-yl]naphthalen-1-ol] | – | 4.93 ± 0.4 µM | not affected | not toxic | – | – | 74 ± 12% | – | not reduced | – | –
2 | OCC(CCc1c[nH]c2ccccc12)c1c[nH]c2ccccc12 (stereo not drawn) [NCI-3, 2,4-bis(1H-indol-3-yl)butan-1-ol] | 84.1 ± 14.1 µM | 29.2 ± 3.64 µM | – | – | – | 52 ± 2% | – | 143 ± 22.4 µM | not reduced | reduced 2-NBDG transport slightly | not toxic

The remaining compounds from weak to strong by IC50 (Caco-2 cells [4]), led by results:

Row | IC50 (HepG2 cells) | IC50 (Caco-2 cells [4]) | SMILES | 2-NBDG glucose transport (Caco-2 cells [1]; 20 μM) | Cellular toxicity (MTT assay) (Caco-2 cells [2]; [6]) | Inhibition of oleoyl CoA synthetase activity ([3]; 50 μM (10 times the IC50), cell extracts) | % Transport Standard Assay (Caco-2 cells [4]) | % Transport after 24 Hour Recovery (Caco-2 cells [5]) | IC50 (3T3-L1 adipocytes) | Oleoyl CoA synthetase activity after compound treatment [3] | 2-NBDG glucose transport (Caco-2 cells [1]; 50 μM) | Cellular toxicity (MTT assay) (Caco-2 cells [2]; 100 μM, Caco-2 cells)
3 | – | 6.66 ± 0.64 µM | O=C1C=CC=CC1=C1NNC2(S1)C(=O)Nc1ccc(Br)cc12 (stereo not drawn) [CB-16, 5′-bromo-5-(6-oxocyclohexa-2,4-dien-1-ylidene)spiro[1,3,4-thiadiazolidine-2,3′-1H-indole]-2′-one] | not affected | not toxic | – | – | 99 ± 16% | – | not reduced | – | –
4 | 10.2 ± 1.26 µM | 6.34 ± 0.93 µM | O=c1cc(-c2ccc([N+](=O)[O-])cc2)nc2c(-c3ccc(Cl)cc3)c(Cc3ccccc3)[nH]n12 [CB-5, 2-benzyl-3-(4-chlorophenyl)-5-(4-nitrophenyl)-1H-pyrazolo[5,1-b]pyrimidin-7-one] | not affected | not toxic | – | 54 ± 1% | 88 ±18% | 901 ± 205 µM | not reduced | – | –
5 | 7.55 ± 1.23 µM | 3.99 ± 0.32 µM | COc1cc(/C=C2/SC(=S)N(c3cccc(Cl)c3)C2=O)cc(Br)c1O [CB-2, (5E)-5-[(3-bromo-4-hydroxy-5-methoxyphenyl)methylene]-3-(3-chlorophenyl)-2-thioxothiazolidin-4-one] | not affected | not toxic | about 50% | 46 ± 3% | 93 ±13% | 231 ± 33.5 µM | – | – | –
